According to patent publication US20260347373A1, “HETEROCYCLIC COMPOUNDS, COMPOSITIONS THEREOF, AND METHODS OF TREATMENT THEREWITH” (BeOne Medicines I GmbH, priority 2023, published 2026):

Legend:
WT KRAS = WT KRAS (Homo sapiens, UniProt P01116); experiment: KRAS WT Probe Displacement Assay (TR-FRET, GDP-loaded); assay type: binding; details: KRAS WT, read-out: KRAS^WT Probe Displacement Assay IC50
From the text: (§1) The synthetic routes of probe 1 and 2, which have been disclosed in PCT/CN2022/070676, are hereby incorporated herein.

KRAS G12D = KRAS G12D (Homo sapiens, UniProt P01116, G12D); experiment: KRAS G12D Probe Displacement Assay (TR-FRET, GDP-loaded); assay type: binding; details: KRAS G12D, read-out: KRAS^G12D Probe Displacement Assay IC50
KRAS G12D, sequence (P01116 1-188 isoform P01116-2 G12D): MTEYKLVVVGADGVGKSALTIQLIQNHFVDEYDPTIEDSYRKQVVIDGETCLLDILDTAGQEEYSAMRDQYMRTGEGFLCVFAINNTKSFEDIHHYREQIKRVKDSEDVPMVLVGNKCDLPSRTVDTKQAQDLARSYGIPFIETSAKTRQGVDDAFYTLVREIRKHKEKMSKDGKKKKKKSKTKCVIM
From the text: as §1

WT KRAS, sequence (P01116 1-188 isoform P01116-2): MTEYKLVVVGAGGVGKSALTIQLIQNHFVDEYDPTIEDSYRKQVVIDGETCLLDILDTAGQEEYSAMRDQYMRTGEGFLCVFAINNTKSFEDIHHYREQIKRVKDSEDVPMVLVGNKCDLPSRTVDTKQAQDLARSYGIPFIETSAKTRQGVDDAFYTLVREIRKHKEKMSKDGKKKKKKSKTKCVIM

| SMILES | IC50 (WT KRAS) [nM] | IC50 (KRAS G12D) [nM] |
| --- | --- | --- |
| Cc1cc(N)cc(-c2nc3c4c(nc(OCC5(CN6CCOC[C@@H]6C)CC5)nc4c2F)N2C[C@H]4CC[C@H](N4)[C@H]2CCO3)c1C(F)(F)F [Example 164, 3-((6aR,7S,10R)-1-fluoro-13-((1-(((S)-3-methylmorpholino)methyl)cyclopropyl)methoxy)-5,6,6a,7,8,9,10,11-octahydro-4-oxa-3,11a,12,14,15-pentaaza-7,10-methanocyclohepta[4,5]cycloocta[1,2,3-de]naphthalen-2-yl)-5-methyl-4-(trifluoromethyl)aniline] | 3 to 1000 | < 0.3 |
| Cc1cc(N)cc(-c2nc3c4c(nc(OCC5(CN6CC(F)(F)C6)CC5)nc4c2F)N2C[C@H]4CC[C@H](N4)[C@H]2CCO3)c1C(F)(F)F [Example 82, 3-((6aR,7S,10R)-13-((1-((3,3-difluoroazetidin-1-yl)methyl)cyclopropyl)methoxy)-1-fluoro-5,6,6a,7,8,9,10,11-octahydro-4-oxa-3,11a,12,14,15-pentaaza-7,10-methanocyclohepta [4,5]cycloocta [1,2,3-de]naphthalen-2-yl)-5-methyl-4-(trifluoromethyl)aniline] | 3 to 1000 | 0.3 to 3 |
| Cc1cc(N)cc(-c2nc3c4c(nc(OCC5(CN6CC(C(F)(F)F)C6)CC5)nc4c2F)N2C[C@H]4CC[C@H](N4)[C@H]2CCO3)c1C(F)(F)F [Example 79, 3-((6aR,7S,10R)-1-fluoro-13-((1-((3-(trifluoromethyl)azetidin-1-yl)methyl)cyclopropyl)methoxy)-5,6,6a,7,8,9,10,11-octahydro-4-oxa-3,11a,12,14,15-pentaaza-7,10-methanocyclohepta [4,5]cycloocta [1,2,3-de]naphthalen-2-yl)-5-methyl-4-(trifluoromethyl)aniline] | 3 to 1000 | < 0.3 |
| Cc1cc(N)cc(-c2nc3c4c(nc(O[C@@H](C)[C@@H]5CC6(CN5C)CC6(F)F)nc4c2F)N2C[C@H]4CC[C@H](N4)[C@H]2CCO3)c1C(F)(F)F (single isomer, unassigned) [Example 224] | 3 to 1000 | < 0.3 |
| COC1CCN(CC2(COc3nc4c5c(nc(-c6cc(N)cc(C)c6C(F)(F)F)c(F)c5n3)OCC[C@@H]3[C@@H]5CC[C@H](CN43)N5)CC2)CC1 [Example 110, 3-((6aR,7S,10R)-1-fluoro-13-((1-((4-methoxypiperidin-1-yl)methyl)cyclopropyl)methoxy)-5,6,6a,7,8,9,10,11-octahydro-4-oxa-3,11a,12,14,15-pentaaza-7,10-methanocyclohepta[4,5]cycloocta[1,2,3-de]naphthalen-2-yl)-5-methyl-4-(trifluoromethyl)aniline] | 3 to 1000 | < 0.3 |
| Cc1cc(N)cc(-c2nc3c4c(nc(OCC5(CN6CCC(C#N)CC6)CC5)nc4c2F)N2C[C@H]4CC[C@H](N4)[C@H]2CCO3)c1C(F)(F)F [Example 165, 1-((1-((((6aR,7S,10R)-2-(5-amino-3-methyl-2-(trifluoromethyl)phenyl)-1-fluoro-5,6,6a,7,8,9,10,11-octahydro-4-oxa-3,11a,12,14,15-pentaaza-7,10-methanocyclohepta[4,5]cycloocta[1,2,3-de]naphthalen-13-yl)oxy)methyl)cyclopropyl)methyl)piperidine-4-carbonitrile] | 0.3 to 3 | < 0.3 |
| Cc1cc(N)cc(-c2nc3c4c(nc(OCC5(CN6C[C@H]7C[C@H]7[C@@H]6CO)CC5)nc4c2F)N2C[C@H]4CC[C@H](N4)[C@H]2CCO3)c1C(F)(F)F [Example 96, ((1R,2R,5S)-3-((1-((((6aR,7S,10R)-2-(5-amino-3-methyl-2-(trifluoromethyl)phenyl)-1-fluoro-5,6,6a,7,8,9,10,11-octahydro-4-oxa-3,11a,12,14,15-pentaaza-7,10-methanocyclohepta [4,5]cycloocta[1,2,3-de]naphthalen-13-yl)oxy)methyl)cyclopropyl)methyl)-3-azabicyclo [3.1.0]hexan-2-yl) methanol] | 3 to 1000 | < 0.3 |
| Cc1cc(N)cc(-c2nc3c4c(nc(OCC5(C)CN(C)CCC5C(F)F)nc4c2F)N2C[C@H]4CC[C@H](N4)[C@H]2CCO3)c1C(F)(F)F (single isomer, unassigned) [Example 244] | 3 to 1000 | 0.3 to 3 |
| Cc1cc(N)cc(-c2nc3c4c(nc(OCC5(CN6CCCC6)CC5)nc4c2F)N2C[C@H]4CC[C@H](N4)[C@H]2CCO3)c1C(F)(F)F [Example 77, 3-((6aR,7S,10R)-1-fluoro-13-((1-(pyrrolidin-1-ylmethyl)cyclopropyl)methoxy)-5,6,6a,7,8,9,10,11-octahydro-4-oxa-3,11a,12,14,15-pentaaza-7,10-methanocyclohepta[4,5]cycloocta[1,2,3-de]naphthalen-2-yl)-5-methyl-4-(trifluoromethyl)aniline] | 3 to 1000 | < 0.3 |
| Cc1cc(N)cc(-c2nc3c4c(nc(OCC5(C(C)N(C)C)CC5(F)F)nc4c2F)N2C[C@H]4CC[C@H](N4)[C@H]2CCO3)c1C(F)(F)F (single isomer, unassigned) [Example 59] | 3 to 1000 | < 0.3 |
| Cc1cc(N)cc(-c2nc3c4c(nc(OC[C@@]56C[C@H](F)CN5C[C@H](F)C6)nc4c2F)N2C[C@H]4CC[C@H](N4)[C@H]2CCO3)c1C(F)(F)F [Example 213, 3-((6aR,7S,10R)-13-(((2R,6S,7as)-2,6-difluorotetrahydro-1H-pyrrolizin-7a(5H)-yl)methoxy)-1-fluoro-5,6,6a,7,8,9,10,11-octahydro-4-oxa-3,11a,12,14,15-pentaaza-7,10-methanocyclohepta[4,5]cycloocta[1,2,3-de]naphthalen-2-yl)-5-methyl-4-(trifluoromethyl)aniline] | 3 to 1000 | 0.3 to 3 |
| Cc1cc(N)cc(-c2nc3c4c(nc(OCC5(C6CCCN6C)CC5)nc4c2F)N2C[C@H]4CC[C@H](N4)[C@H]2CCO3)c1C(F)(F)F (single isomer, unassigned) [Example 133] | 3 to 1000 | < 0.3 |
| C=C1CN2C[C@H](F)C[C@@]2(COc2nc3c4c(nc(-c5cc(N)cc(Cl)c5C(F)(F)F)c(F)c4n2)OCC[C@@H]2[C@@H]4CC[C@H](CN32)N4)C1 [Example 209, 3-chloro-5-((6aR,7S,10R)-1-fluoro-13-(((2R,7aR)-2-fluoro-6-methylenetetrahydro-1H-pyrrolizin-7a(5H)-yl)methoxy)-5,6,6a,7,8,9,10,11-octahydro-4-oxa-3,11a,12,14,15-pentaaza-7,10-methanocyclohepta[4,5]cycloocta[1,2,3-de]naphthalene-2-yl)-4-(trifluoromethyl)aniline] | 3 to 1000 | < 0.3 |
| [2H]C([2H])([2H])N1CCC(C(F)F)C(C)(C([2H])([2H])Oc2nc3c4c(nc(-c5cc(N)cc(C)c5C(F)(F)F)c(F)c4n2)OCC[C@@H]2[C@@H]4CC[C@H](CN32)N4)C1 (single isomer, unassigned) [Example 241] | 0.3 to 3 | < 0.3 |
| Cc1cc(N)cc(-c2nc3c4c(nc(OCC5(CN6CCCC(O)(C(F)(F)F)C6)CC5)nc4c2F)N2C[C@H]4CC[C@H](N4)[C@H]2CCO3)c1C(F)(F)F (stereo partly drawn) [Example 117, 1-((1-((((6aR,7S,10R)-2-(5-amino-3-methyl-2-(trifluoromethyl)phenyl)-1-fluoro-5,6,6a,7,8,9,10,11-octahydro-4-oxa-3,11a,12,14,15-pentaaza-7,10-methanocyclohepta [4,5]cycloocta [1,2,3-de]naphthalen-13-yl)oxy)methyl)cyclopropyl)methyl)-3-(trifluoromethyl) piperidin-3-ol] | 3 to 1000 | < 0.3 |
